The values that follow are results of earlier work, collected in US7833524B2 (priority 2005, dated 2010).

For the series, the target named is LC/A (Clostridium botulinum, UniProt P0DPI0).
LC/A, sequence (P0DPI0 2-448 limits assumed): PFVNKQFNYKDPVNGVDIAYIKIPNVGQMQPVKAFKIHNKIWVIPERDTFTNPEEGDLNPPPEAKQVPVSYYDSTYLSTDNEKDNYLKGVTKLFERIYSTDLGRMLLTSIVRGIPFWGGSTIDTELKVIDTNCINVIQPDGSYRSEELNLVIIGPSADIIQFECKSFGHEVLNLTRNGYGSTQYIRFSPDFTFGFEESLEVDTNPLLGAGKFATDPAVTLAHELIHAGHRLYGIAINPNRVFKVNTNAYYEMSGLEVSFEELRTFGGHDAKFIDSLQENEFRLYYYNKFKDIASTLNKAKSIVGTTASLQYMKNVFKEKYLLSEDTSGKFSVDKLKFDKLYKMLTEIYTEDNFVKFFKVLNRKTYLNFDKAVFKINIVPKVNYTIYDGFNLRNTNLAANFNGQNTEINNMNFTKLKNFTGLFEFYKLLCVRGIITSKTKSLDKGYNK

With `C[C@H](CS)C(=O)N1CCC[C@H]1C(=O)O` [captopril], the “Concentration range that inhibits LC/A” value is “mM concentrations”.

With `CCOC(=O)[C@H](CCc1ccccc1)N[C@@H](C)C(=O)N1CCC[C@H]1C(=O)O` [enalapril], the “Concentration range that inhibits LC/A” value is reported as “mM concentrations”.
